Tests used:
Type in all cases: cell-based, mouse
[1] = system: splenocytes from wild-type and TIRAP−/− mice; assay: Proliferation of splenocytes in the presence of IL-1, PHA or both ([3H]-thymidine uptake); details: 100 U/ml IL-1β, 10 ng/ml PHA, 72 hr + 12 hr
Description: As shown in MyD88-, TRAF6-, and IRAK-4-deficient mice, signaling pathway via IL-1 receptor family utilizes the same signaling pathway as that of TLRs (Adachi et. al., Immunity. 9, 143-150, 1998; Lomaga et al., Gene Dev. 13, 1015-24, 1999; Naito et al., Gene Cells 4, 353-62, 1999; Suzuki et al., Nature 416, 750-56, 2002). To investigate the proliferation of splenocytes from TIRAP^−/− mice induced by IL-1 or Phytohemagglutinin (PHA) being co-stimulatory substance with IL-1, splenocytes from wild-type and TIRAP^−/− mice were cultured for 72 hr and proliferated in the presence of 100 U/ml of IL-1β, and of 10 ng/ml of PHA, and in the co-presence of IL-1β and PHA, then supplemented with 1 μCi of [^3H]-thymidine, further cultured for 12 hr, and measured the uptake of [^3H] with a β scintillation counter. Proliferation of splenocytes was determined by measuring the [^3H] level of [^3H] thymidine ingested into a cell.

NF-κB = NF-κB DNA binding in nuclear extracts of peritoneal macrophages (EMSA); details: LPS 100 ng/ml, MALP-2 3 ng/ml, R-848 10 nM
[2] = system: peritoneal macrophages from wild-type and TIRAP−/− mice; assay: Inflammatory cytokine production of peritoneal macrophages (ELISA of culture supernatant); details: LPS 1 ng/ml 24 hr, MALP-2 and PGN at various concentrations
Protocol: Next, LPS-induced inflammatory cytokine production of peritoneal macrophages from wild-type and TIRAP^−/− mice was analyzed. 2 ml of 4% thioglycollate medium (DIFCO) were intraperitoneally injected into TIRAP^−/− and wild-type mice, respectively. Three days later, peritoneal exudate cells were isolated from peritoneal cavity of each mouse. The cells were cultured for 2 hr at 37° C. in RPMI 1640 medium (GIBCO) supplemented with 10% fetal bovine serum (GIBCO), nonadherent cells were removed by washing with Hank's buffered salt solution: HBSS; GIBCO) at ice temperature, and adherent cells were used as peritoneal macrophages. Each obtained peritoneal macrophage was cultured with 1 ng/ml of Re-595 LPS for 24 hr, and concentration of IL-6, TNF-α and IL-12 in the culture supernatant was measured according to a common procedure by ELISA (FIG. 7; means±SD of triplicates, N.D. Not detected).
IL-6, TNF-α and IL-12 in the culture supernatant were measured using mycoplasmal lipopeptide MALP-2 being TLR2 ligand (synthesized and purified as described in Takeuchi-MALP) and Staphylococcus aureus peptidoglycan (PGN) (Fluka) at various concentrations (FIG. 9). […] Next, peritoneal macrophages of wild-type and TIRAP^−/− mice were stimulated with Poly I:C being TLR3 ligand (Amersham) for 4 hr and 8 hr. Total RNA was extracted, and the expression of IFN-β mRNA was analyzed by Northern blot method. […]

ERK1/2, JNK and p38 = assay: Activation of MAP kinases in peritoneal macrophages (Western blot); details: LPS 100 ng/ml, MALP-2 3 ng/ml, R848 100 nM, 10 min and 20 min
Protocol: Next, peritoneal macrophages from wild-type and TIRAP^−/− mice were stimulated with 100 ng/ml of LPS, 3 ng/ml of MALP-2, and 100 nM of R848 for 10 min and 20 min, respectively. The cells were then lysed in the lysis buffer containing 1.0% Nonidet P-40, 150 mM NaCl, 20 mM tris-C1 (pH 7.5), 5 mM EDTA and protease inhibitor cocktail (Roche). The cell lysates were dissolved by SDS-PAGE and transferred onto a PVDF membrane (BioRad). The above-mentioned PVDF membrane was blotted with […] specific to ERK1/2, JNK, and p38 (Santa Cruz), and […] specific to phosphorylated ERK 1/2, phosphorylated JNK, and phosphorylated p38 (Cell Signaling) and Western blot analysis was conducted by visualizing with an enhanced chemiluminescence system (NEN Life Science Product) (FIG. 12). […] The result is quite similar to those observed in MyD88^−/− mice (Kawai et al.: Immunity 11: 115-22; 1999).

IRAK-1 = IRAK-1 in vitro kinase assay on lysates of stimulated peritoneal macrophages
Protocol: IRAK-1 is activated in the downstream of MyD88. […] In vitro kinase assay was conducted as described previously (Sato et al. II), and kinase activation of IRAK-1 was measured. The same lysates were blotted with anti-IRAK-1 antibody, and the effect of IRAK-1 was analyzed (FIG. 13).

IFN-β mRNA = assay: Expression of IFN-β mRNA in peritoneal macrophages (Northern blot); details: stimulated 4 hr and 8 hr
Protocol: IL-6, TNF-α and IL-12 in the culture supernatant were measured using mycoplasmal lipopeptide MALP-2 being TLR2 ligand (synthesized and purified as described in Takeuchi-MALP) and Staphylococcus aureus peptidoglycan (PGN) (Fluka) at various concentrations (FIG. 9). […] Next, peritoneal macrophages of wild-type and TIRAP^−/− mice were stimulated with Poly I:C being TLR3 ligand (Amersham) for 4 hr and 8 hr. Total RNA was extracted, and the expression of IFN-β mRNA was analyzed by Northern blot method. At that time, 18S ribosomal RNA was used as control. Expression of IFN-β mRNA was induced in both wild-type and TIRAP^−/− mice (FIG. 10).

[3] = TIRAP−/− peritoneal macrophages
[4] = wild-type peritoneal macrophages

| Compound | proliferation of splenocytes (uptake of [3H]-thymidine) ([1]; TIRAP−/− splenocytes) | proliferation of splenocytes (uptake of [3H]-thymidine) ([1]; wild-type splenocytes) | phosphorylation/activation of ERK1/2, JNK and p38 (ERK1/2, JNK and p38; wild-type macrophages) | autophosphorylation (Auto) of IRAK-1 (IRAK-1; TIRAP−/− macrophages) | autophosphorylation (Auto) of IRAK-1 (IRAK-1; wild-type macrophages) | other results |
| --- | --- | --- | --- | --- | --- | --- |
| IL-1: Interleukin-1 cytokine, used as IL-1β at 100 U/ml | enhanced proliferation | enhanced proliferation |  |  |  |  |
| Phytohemagglutinin [PHA] | enhanced proliferation | enhanced proliferation |  |  |  |  |
| MALP-2 |  |  | phosphorylated and activation was induced | not observed | induced autophosphorylation | NF-κB DNA binding effect (NF-κB; TIRAP−/− macrophages, LPS at 10 min): significantly inhibited; NF-κB DNA binding effect (NF-κB; wild-type macrophages, LPS and MALP-2 at 10 min): observed; production of IL-6, TNF-α and IL-12 [2, 3]: severely impaired; production of IL-6, TNF-α and IL-12 [2, 4]: dose-dependent production; phosphorylation/activation of ERK1/2, JNK and p38 (ERK1/2, JNK and p38; TIRAP−/− macrophages): not observed |
| CCOCc1nc2c(N)nc3ccccc3c2n1CC(C)(C)O [R-848] |  |  | phosphorylated and activation was induced | autophosphorylation was induced | induced autophosphorylation |  |
| Poly I:C |  |  |  |  |  | expression of IFN-β mRNA (IFN-β mRNA; [3]): induced; expression of IFN-β mRNA (IFN-β mRNA; [4]): induced |

— US20050257280A1, “Nonhuman model animal nonresponsive to endotoxin and lipoprotein or lipopeptide” (priority 2002, published 2005)
